The subject of series [1] is Mycobacterium intracellulare. Kind of series: Antibacterial activity against Mycobacterium intracellular. Format: functional.
Series [2] deals with Plasmodium falciparum. Kind of series: Antimalarial activity against Plasmodium falciparum W2. It counts as functional, organism-based.
For series [3], the system named is Plasmodium falciparum. Kind of series: Antimalarial activity against Plasmodium falciparum D6. It counts as functional, organism-based.
The test system of a further series is Vero. As to the kind of experiment: Cytotoxicity against african green monkey Vero cells. It counts as cell-based. To be noted: chlorocebus sabaeus.
The next series deals with Cryptococcus neoformans. Kind of series: Antifungal activity against Cryptococcus neoformans. Format: functional, organism-based.
The next series has as its system Candida albicans. As to the kind of experiment: Antifungal activity against Candida albicans. Format: functional, organism-based.

In brackets after ≈: the same amount, converted by molar mass. Activity calls are given as the source filed them. The rule behind the calls is not given here.

`O=CN(CCc1cnc[nH]1)c1cc[nH]c1` [SOLSODOMINE A] showed an MIC in series [1] of 10 µg/mL (≈ 49 µM). In addition, the outcome in the series with Plasmodium falciparum [2], in the series with Plasmodium falciparum [3], in the series on Cryptococcus neoformans and in the series with Candida albicans was inactive. The Activity entry in the series on Vero was “Not Active”.

Regarding `CNCCCN(C=O)c1cc[nH]c1` [SOLSODOMINE B], the result with Plasmodium falciparum [2], in the series with Plasmodium falciparum [3], with Cryptococcus neoformans and in the series on Candida albicans was inactive. Besides, the Activity result in the series with Vero was “Not Active”.
